Assay results published in article PMC7917164 (Bioorganic & medicinal chemistry, 2020).
Structures can show the parent of a compound that is named as a salt.

test system: Aβ42 levels (γ-secretase modulation) in SHSY5Y-APP cells; experiment: Cell-based ELISA assay for measuring extracellular Aβ42 levels; design: species or system human; settings: not given

Structure (SMILES) | Parent Aβ42 IC50
COc1nc(-c2csc(Nc3c4c(nn3C3CCOC3)CCCC4)n2)ccc1-n1cnc(C)c1 (racemic) [Compound 40, (+/−)-4-(6-methoxy-5-(4-methyl-1H-imidazol-1-yl)pyridin-2-yl)-N-(2-(tetrahydrofuran-3-yl)-4,5,6,7-tetrahydro-2H-indazol-3-yl)thiazol-2-amine] | 289 nM
CCn1nc2c(c1Nc1nc(-c3ccc(-n4cnc(C)c4)c(OC)n3)cs1)C(C)CC2(C)C (racemic) [Compound 72, (+/−)-N-(2-ethyl-4,6,6-trimethyl-2,4,5,6-tetrahydrocyclopenta[c]pyrazol-3-yl)-4-(6-methoxy-5-(4-methyl-1H-imidazol-1-yl)pyridin-2-yl)thiazol-2-amine] | 49 nM
CCCn1nc2c(c1Nc1nc(-c3ccc(-n4cnc(C)c4)c(OC)n3)cs1)CCCC2 [Compound 34, 4-(6-methoxy-5-(4-methyl-1H-imidazol-1-yl)pyridin-2-yl)-N-(2-propyl-4,5,6,7-tetrahydro-2H-indazol-3-yl)thiazol-2-amine] | 148 nM
COc1nc(-c2csc(Nc3c4c(nn3C(C)C)CCCC4)n2)ccc1-n1cnc(C)c1 [Compound 35, N-(2-isopropyl-4,5,6,7-tetrahydro-2H-indazol-3-yl)-4-(6-methoxy-5-(4-methyl-1H-imidazol-1-yl)pyridin-2-yl)thiazol-2-amine] | 195 nM
COc1nc(-c2csc(Nc3c4c(nn3C(C)(C)C)CCCC4)n2)ccc1-n1cnc(C)c1 [Compound 36, N-(2-(tert-butyl)-4,5,6,7-tetrahydro-2H-indazol-3-yl)-4-(6-methoxy-5-(4-methyl-1H-imidazol-1-yl)pyridin-2-yl)thiazol-2-amine] | 216 nM
COc1nc(-c2csc(Nc3c4c(nn3C3CCC3)CCCC4)n2)ccc1-n1cnc(C)c1 [Compound 37, N-(2-cyclobutyl-4,5,6,7-tetrahydro-2H-indazol-3-yl)-4-(6-methoxy-5-(4-methyl-1H-imidazol-1-yl)pyridin-2-yl)thiazol-2-amine] | 99 nM
COc1nc(-c2csc(Nc3c4c(nn3C3CCCC3)CCCC4)n2)ccc1-n1cnc(C)c1 [Compound 38, N-(2-cyclopentyl-4,5,6,7-tetrahydro-2H-indazol-3-yl)-4-(6-methoxy-5-(4-methyl-1H-imidazol-1-yl)pyridin-2-yl)thiazol-2-amine] | 225 nM
COc1nc(-c2csc(Nc3c4c(nn3C3CCCCC3)CCCC4)n2)ccc1-n1cnc(C)c1 [Compound 39, N-(2-cyclohexyl-4,5,6,7-tetrahydro-2H-indazol-3-yl)-4-(6-methoxy-5-(4-methyl-1H-imidazol-1-yl)pyridin-2-yl)thiazol-2-amine] | 280 nM
COc1nc(-c2csc(Nc3c4c(nn3C3CCOCC3)CCCC4)n2)ccc1-n1cnc(C)c1 [Compound 41, 4-(6-methoxy-5-(4-methyl-1H-imidazol-1-yl)pyridin-2-yl)-N-(2-(tetrahydro-2H-pyran-4-yl)-4,5,6,7-tetrahydro-2H-indazol-3-yl)thiazol-2-amine] | 766 nM
COc1nc(-c2csc(Nc3c4c(nn3C3CCN(C)CC3)CCCC4)n2)ccc1-n1cnc(C)c1 [Compound 42, 4-(6-methoxy-5-(4-methyl-1H-imidazol-1-yl)pyridin-2-yl)-N-(2-(1-methylpiperidin-4-yl)-4,5,6,7-tetrahydro-2H-indazol-3-yl)thiazol-2-amine] | >1000 nM
COc1nc(-c2csc(Nc3c4c(nn3CCN3CCCCC3)CCCC4)n2)ccc1-n1cnc(C)c1 [Compound 43, 4-(6-methoxy-5-(4-methyl-1H-imidazol-1-yl)pyridin-2-yl)-N-(2-(2-(piperidin-1-yl)ethyl)-4,5,6,7-tetrahydro-2H-indazol-3-yl)thiazol-2-amine] | 475 nM
COc1nc(-c2csc(Nc3c4c(nn3CCN3CCOCC3)CCCC4)n2)ccc1-n1cnc(C)c1 [Compound 44, 4-(6-methoxy-5-(4-methyl-1H-imidazol-1-yl)pyridin-2-yl)-N-(2-(2-morpholinoethyl)-4,5,6,7-tetrahydro-2H-indazol-3-yl)thiazol-2-amine trihydrochloride] | >1000 nM
COc1nc(-c2csc(Nc3c4c(nn3CCCN3CCOCC3)CCCC4)n2)ccc1-n1cnc(C)c1 [Compound 45, 4-(6-methoxy-5-(4-methyl-1H-imidazol-1-yl)pyridin-2-yl)-N-(2-(3-morpholinopropyl)-4,5,6,7-tetrahydro-2H-indazol-3-yl)thiazol-2-amine] | 270 nM
COc1nc(-c2csc(Nc3c4c(nn3CC(F)(F)F)CCCC4)n2)ccc1-n1cnc(C)c1 [Compound 47, 4-(6-methoxy-5-(4-methyl-1H-imidazol-1-yl)pyridin-2-yl)-N-(2-(2,2,2-trifluoroethyl)-4,5,6,7-tetrahydro-2H-indazol-3-yl)thiazol-2-amine] | 179 nM
COCCn1nc2c(c1Nc1nc(-c3ccc(-n4cnc(C)c4)c(OC)n3)cs1)CCCC2 [Compound 48, 4-(6-methoxy-5-(4-methyl-1H-imidazol-1-yl)pyridin-2-yl)-N-(2-(2-methoxyethyl)-4,5,6,7-tetrahydro-2H-indazol-3-yl)thiazol-2-amine] | 272 nM
COc1nc(-c2csc(Nc3c4c(nn3CCO)CCCC4)n2)ccc1-n1cnc(C)c1 [Compound 49, 2-(3-((4-(6-methoxy-5-(4-methyl-1H-imidazol-1-yl)pyridin-2-yl)thiazol-2-yl)amino)-4,5,6,7-tetrahydro-2H-indazol-2-yl)ethanol] | 362 nM
COc1nc(-c2csc(Nc3c4c(nn3CCCO)CCCC4)n2)ccc1-n1cnc(C)c1 [Compound 50, 3-(3-((4-(6-methoxy-5-(4-methyl-1H-imidazol-1-yl)pyridin-2-yl)thiazol-2-yl)amino)-4,5,6,7-tetrahydro-2H-indazol-2-yl)propan-1-ol] | 229 nM
COc1nc(-c2csc(Nc3c4c(nn3CC(C)(C)O)CCCC4)n2)ccc1-n1cnc(C)c1 [Compound 51, 1-(3-((4-(6-methoxy-5-(4-methyl-1H-imidazol-1-yl)pyridin-2-yl)thiazol-2-yl)amino)-4,5,6,7-tetrahydro-2H-indazol-2-yl)-2-methylpropan-2-ol] | 55 nM
CCn1nc2c(c1N(C)c1nc(-c3ccc(-n4cnc(C)c4)c(OC)n3)cs1)CCCC2 [Compound 52, N-(2-ethyl-4,5,6,7-tetrahydro-2H-indazol-3-yl)-4-(6-methoxy-5-(4-methyl-1H-imidazol-1-yl)pyridin-2-yl)-N-methylthiazol-2-amine] | >1000 nM
CCCn1nc(C(C)(C)C)cc1Nc1nc(-c2ccc(-n3cnc(C)c3)c(OC)n2)cs1 [Compound 53, N-(3-(tert-butyl)-1-propyl-1H-pyrazol-5-yl)-4-(6-methoxy-5-(4-methyl-1H-imidazol-1-yl)pyridin-2-yl)thiazol-2-amine dihydrochloride] | 86 nM
COc1nc(-c2csc(Nc3cc(C(C)(C)C)nn3C(C)C)n2)ccc1-n1cnc(C)c1 [Compound 54, N-(3-(tert-butyl)-1-isopropyl-1H-pyrazol-5-yl)-4-(6-methoxy-5-(4-methyl-1H-imidazol-1-yl)pyridine-2-yl)thiazol-2-amine] | 87 nM
COc1nc(-c2csc(Nc3cc(C(C)(C)C)nn3C(C)(C)C)n2)ccc1-n1cnc(C)c1 [Compound 55, N-(1,3-di-tert-butyl-1H-pyrazol-5-yl)-4-(6-methoxy-5-(4-methyl-1H-imidazol-1-yl)pyridin-2-yl)thiazol-2-amine] | 85 nM
COc1nc(-c2csc(Nc3cc(C(C)(C)C)nn3CC(F)(F)F)n2)ccc1-n1cnc(C)c1 [Compound 57, N-(3-(tert-butyl)-1-(2,2,2-trifluoroethyl)-1H-pyrazol-5-yl)-4-(6-methoxy-5-(4-methyl-1H-imidazol-1-yl)pyridin-2-yl)thiazol-2-amine] | 87 nM
CCn1nc(C(C)C)cc1Nc1nc(-c2ccc(-n3cnc(C)c3)c(OC)n2)cs1 [Compound 58, N-(1-ethyl-3-isopropyl-1H-pyrazol-5-yl)-4-(6-methoxy-5-(4-methyl-1H-imidazol-1-yl)pyridin-2-yl)thiazol-2-amine] | 394 nM
COc1nc(-c2csc(Nc3cc(C(F)(F)F)nn3C(C)(C)C)n2)ccc1-n1cnc(C)c1 [Compound 61, N-(1-(tert-butyl)-3-(trifluoromethyl)-1H-pyrazol-5-yl)-4-(6-methoxy-5-(4-methyl-1H-imidazol-1-yl)pyridin-2-yl)thiazol-2-amine] | 121 nM
COc1nc(-c2csc(Nc3cc(C(F)(F)F)nn3CC(F)(F)F)n2)ccc1-n1cnc(C)c1 [Compound 62, 4-(6-methoxy-5-(4-methyl-1H-imidazol-1-yl)pyridin-2-yl)-N-(1-(2,2,2-trifluoroethyl)-3-(trifluoromethyl)-1H-pyrazol-5-yl)thiazol-2-amine] | 771 nM
COc1nc(-c2csc(Nc3c4c(nn3C(C)C)CCC4)n2)ccc1-n1cnc(C)c1 [Compound 65, N-(2-isopropyl-2,4,5,6-tetrahydrocyclopenta[c]pyrazol-3-yl)-4-(6-methoxy-5-(4-methyl-1H-imidazol-1-yl)pyridin-2-yl)thiazol-2-amine] | 66 nM

same assay, conditions: ratio of Aβ42 IC50 values

Structure (SMILES) | Loss in activity (Aβ42) versus the parent fluorophenyl compound
CCn1nc2c(c1Nc1nc(-c3ccc(-n4cnc(C)c4)cc3)cs1)CCCC2 [Compound 22a] | greater than 4 fold
Cc1cn(-c2ccc(-c3csc(Nc4c5c(nn4C)CCCC5)n3)cc2)cn1 [Compound 31a] | greater than 2 fold
CCn1nc(C(C)(C)C)cc1Nc1nc(-c2ccc(-n3cnc(C)c3)cc2)cs1 [Compound 33a] | greater than 2 fold
